Assay results as given in the supplement of paper PMC10307832.

Legend:
Experiment in all cases: relative viability (nuclei count vs DMSO), 5 days (fraction); higher = more cells survive
[1] = system: HOP-62
Procedure, shortened: (§1)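 Relative viability is defined as nuclei in treated wells over nuclei in vehicle wells. Duplicate plates were run and medians reported. Lung cancer cell lines in 1536-well plates were dosed by pin tool one day after seeding, with one drug or with a fixed anchor-drug dose plus five library-drug doses (not always all listed) in √10 steps, and nuclei were counted after 5 days.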

[2] = system: SW 1573
Procedure, shortened: as §1

[3] = system: PC-3 [JPC-3]
Procedure, shortened: as §1

[4] = system: NCI-H1355
Procedure, shortened: as §1

[5] = system: LU99A
Procedure, shortened: as §1

[6] = system: NCI-H2405
Procedure, shortened: as §1

[7] = system: NCI-H441
Procedure, shortened: as §1

[8] = system: NCI-H3122
Procedure, shortened: as §1

[9] = system: EPLC-272H
Procedure, shortened: as §1

[10] = system: EKVX
Procedure, shortened: as §1

[11] = system: H3255
Procedure, shortened: as §1

[12] = system: LXF-289
Procedure, shortened: as §1

[13] = system: NCI-H2228
Procedure, shortened: as §1

[14] = system: LCLC-97TM1
Procedure, shortened: as §1

[15] = system: NCI-H1650
Procedure, shortened: as §1

[16] = system: NCI-H1993
Procedure, shortened: as §1

[17] = system: LK-2
Procedure, shortened: as §1

[18] = system: SK-LU-1
Procedure, shortened: as §1

[19] = system: HCC-827
Procedure, shortened: as §1

[20] = system: ChaGo-K-1
Procedure, shortened: as §1

[21] = system: NCI-H2170
Procedure, shortened: as §1

[22] = system: UMC-11
Procedure, shortened: as §1

## CN1CCN(CCOc2cc(OC3CCOCC3)c3c(Nc4c(Cl)ccc5c4OCO5)ncnc3c2)CC1 [Saracatinib] + CS(=O)(=O)N1CCN(Cc2cc3nc(-c4cccc5[nH]ncc45)nc(N4CCOCC4)c3s2)CC1 [Pictilisib] (partner 1 µM)
[1]; first compound 0.02 µM
  relative viability: 0.548
[1]; first compound 0.2 µM
  relative viability: 0.685
[1]; first compound 0.6325 µM
  relative viability: 1.05
[1]; first compound 2 µM
  relative viability: 0.605
[2]; first compound 0.02 µM
  relative viability: 0.47
[2]; first compound 0.2 µM
  relative viability: 0.451
[2]; first compound 0.6325 µM
  relative viability: 0.456
[2]; first compound 2 µM
  relative viability: 0.295
[3]; first compound 0.02 µM
  relative viability: 0.782
[3]; first compound 0.2 µM
  relative viability: 0.613
[3]; first compound 0.6325 µM
  relative viability: 0.475
[3]; first compound 2 µM
  relative viability: 0.395
[4]; first compound 0.02 µM
  relative viability: 0.497
[4]; first compound 0.2 µM
  relative viability: 0.467
[4]; first compound 0.6325 µM
  relative viability: 0.516
[4]; first compound 2 µM
  relative viability: 0.461
[5]; first compound 0.02 µM
  relative viability: 0.334
[5]; first compound 0.2 µM
  relative viability: 0.259
[5]; first compound 0.6325 µM
  relative viability: 0.309
[5]; first compound 2 µM
  relative viability: 0.299
[6]; first compound 0.02 µM
  relative viability: 0.441
[6]; first compound 0.2 µM
  relative viability: 0.366
[6]; first compound 0.6325 µM
  relative viability: 0.352
[6]; first compound 2 µM
  relative viability: 0.22
[7]; first compound 0.02 µM
  relative viability: 0.461
[7]; first compound 0.2 µM
  relative viability: 0.406
[7]; first compound 0.6325 µM
  relative viability: 0.501
[7]; first compound 2 µM
  relative viability: 0.329
[8]; first compound 0.02 µM
  relative viability: 0.573
[8]; first compound 0.6325 µM
  relative viability: 0.586
[8]; first compound 2 µM
  relative viability: 0.454
[9]; first compound 0.02 µM
  relative viability: 0.337
[9]; first compound 0.2 µM
  relative viability: 0.298
[9]; first compound 0.6325 µM
  relative viability: 0.388
[9]; first compound 2 µM
  relative viability: 0.232
[10]; first compound 0.02 µM
  relative viability: 0.417
[10]; first compound 0.2 µM
  relative viability: 0.409
[10]; first compound 0.6325 µM
  relative viability: 0.366
[10]; first compound 2 µM
  relative viability: 0.175
[11]; first compound 0.02 µM
  relative viability: 0.432
[11]; first compound 0.2 µM
  relative viability: 0.391
[11]; first compound 0.6325 µM
  relative viability: 0.352
[11]; first compound 2 µM
  relative viability: 0.156
[12]; first compound 0.02 µM
  relative viability: 0.715
[12]; first compound 0.2 µM
  relative viability: 0.731
[12]; first compound 0.6325 µM
  relative viability: 0.8
[12]; first compound 2 µM
  relative viability: 0.472
[13]; first compound 0.02 µM
  relative viability: 0.385
[13]; first compound 0.2 µM
  relative viability: 0.206
[13]; first compound 0.6325 µM
  relative viability: 0.244
[13]; first compound 2 µM
  relative viability: 0.207
[14]; first compound 0.02 µM
  relative viability: 0.231
[14]; first compound 0.2 µM
  relative viability: 0.12
[14]; first compound 0.6325 µM
  relative viability: 0.193
[14]; first compound 2 µM
  relative viability: 0.186
[15]; first compound 0.02 µM
  relative viability: 0.626
[15]; first compound 0.2 µM
  relative viability: 0.468
[15]; first compound 0.6325 µM
  relative viability: 0.377
[15]; first compound 2 µM
  relative viability: 0.314
[16]; first compound 0.02 µM
  relative viability: 0.655
[16]; first compound 0.2 µM
  relative viability: 0.969
[16]; first compound 2 µM
  relative viability: 0.652
[17]; first compound 0.02 µM
  relative viability: 0.563
[17]; first compound 0.2 µM
  relative viability: 0.316
[17]; first compound 0.6325 µM
  relative viability: 0.413
[17]; first compound 2 µM
  relative viability: 0.302
[18]; first compound 0.02 µM
  relative viability: 0.443
[18]; first compound 0.2 µM
  relative viability: 0.419
[18]; first compound 0.6325 µM
  relative viability: 0.388
[18]; first compound 2 µM
  relative viability: 0.226
[19]; first compound 0.02 µM
  relative viability: 1.1
[19]; first compound 0.2 µM
  relative viability: 0.499
[19]; first compound 0.6325 µM
  relative viability: 0.501
[19]; first compound 2 µM
  relative viability: 0.323
[20]; first compound 0.02 µM
  relative viability: 0.784
[20]; first compound 0.2 µM
  relative viability: 0.521
[20]; first compound 0.6325 µM
  relative viability: 0.903
[20]; first compound 2 µM
  relative viability: 0.379
[21]; first compound 0.02 µM
  relative viability: 0.355
[21]; first compound 0.2 µM
  relative viability: 0.233
[21]; first compound 0.6325 µM
  relative viability: 0.234
[21]; first compound 2 µM
  relative viability: 0.208
[22]; first compound 0.02 µM
  relative viability: 0.691
[22]; first compound 0.6325 µM
  relative viability: 0.836
[22]; first compound 2 µM
  relative viability: 0.679

## CN1CCN(CCOc2cc(OC3CCOCC3)c3c(Nc4c(Cl)ccc5c4OCO5)ncnc3c2)CC1 [Saracatinib] + C[C@@H](Oc1cc(-c2cnn(C3CCNCC3)c2)cnc1N)c1c(Cl)ccc(F)c1Cl [Crizotinib] (partner 1 µM)
[1]; first compound 0.02 µM
  relative viability: 0.772
[1]; first compound 0.2 µM
  relative viability: 0.928
[1]; first compound 0.6325 µM
  relative viability: 0.841
[1]; first compound 2 µM
  relative viability: 1.02
[2]; first compound 0.02 µM
  relative viability: 0.744
[2]; first compound 0.2 µM
  relative viability: 0.801
[2]; first compound 0.6325 µM
  relative viability: 0.903
[2]; first compound 2 µM
  relative viability: 0.591
[3]; first compound 0.02 µM
  relative viability: 0.997
[3]; first compound 0.2 µM
  relative viability: 0.983
[3]; first compound 0.6325 µM
  relative viability: 0.942
[3]; first compound 2 µM
  relative viability: 0.582
[4]; first compound 0.02 µM
  relative viability: 1.06
[4]; first compound 0.2 µM
  relative viability: 1.13
[4]; first compound 0.6325 µM
  relative viability: 1.08
[4]; first compound 2 µM
  relative viability: 0.925
[5]; first compound 0.02 µM
  relative viability: 0.664
[5]; first compound 0.2 µM
  relative viability: 0.377
[5]; first compound 0.6325 µM
  relative viability: 0.487
[5]; first compound 2 µM
  relative viability: 0.39
[6]; first compound 0.02 µM
  relative viability: 0.854
[6]; first compound 0.2 µM
  relative viability: 0.788
[6]; first compound 0.6325 µM
  relative viability: 0.751
[6]; first compound 2 µM
  relative viability: 0.501
[7]; first compound 0.02 µM
  relative viability: 0.95
[7]; first compound 0.2 µM
  relative viability: 0.601
[7]; first compound 0.6325 µM
  relative viability: 0.798
[7]; first compound 2 µM
  relative viability: 0.646
[8]; first compound 0.02 µM
  relative viability: 0.28
[8]; first compound 0.6325 µM
  relative viability: 0.226
[8]; first compound 2 µM
  relative viability: 0.187
[9]; first compound 0.02 µM
  relative viability: 0.96
[9]; first compound 0.2 µM
  relative viability: 0.826
[9]; first compound 0.6325 µM
  relative viability: 0.779
[9]; first compound 2 µM
  relative viability: 0.729
[10]; first compound 0.02 µM
  relative viability: 0.927
[10]; first compound 0.2 µM
  relative viability: 0.865
[10]; first compound 0.6325 µM
  relative viability: 0.596
[10]; first compound 2 µM
  relative viability: 0.302
[11]; first compound 0.02 µM
  relative viability: 0.865
[11]; first compound 0.2 µM
  relative viability: 0.952
[11]; first compound 0.6325 µM
  relative viability: 0.664
[11]; first compound 2 µM
  relative viability: 0.269
[12]; first compound 0.02 µM
  relative viability: 0.845
[12]; first compound 0.2 µM
  relative viability: 0.775
[12]; first compound 0.6325 µM
  relative viability: 0.847
[12]; first compound 2 µM
  relative viability: 0.892
[13]; first compound 0.02 µM
  relative viability: 0.477
[13]; first compound 0.2 µM
  relative viability: 0.326
[13]; first compound 0.6325 µM
  relative viability: 0.306
[13]; first compound 2 µM
  relative viability: 0.213
[14]; first compound 0.02 µM
  relative viability: 0.416
[14]; first compound 0.2 µM
  relative viability: 0.268
[14]; first compound 0.6325 µM
  relative viability: 0.457
[14]; first compound 2 µM
  relative viability: 0.316
[15]; first compound 0.02 µM
  relative viability: 1.03
[15]; first compound 0.2 µM
  relative viability: 0.637
[15]; first compound 0.6325 µM
  relative viability: 0.582
[15]; first compound 2 µM
  relative viability: 0.413
[16]; first compound 0.02 µM
  relative viability: 0.832
[16]; first compound 0.2 µM
  relative viability: 0.594
[16]; first compound 2 µM
  relative viability: 0.589
[17]; first compound 0.02 µM
  relative viability: 0.253
[17]; first compound 0.2 µM
  relative viability: 0.225
[17]; first compound 0.6325 µM
  relative viability: 0.196
[17]; first compound 2 µM
  relative viability: 0.201
[18]; first compound 0.02 µM
  relative viability: 0.774
[18]; first compound 0.2 µM
  relative viability: 0.646
[18]; first compound 0.6325 µM
  relative viability: 0.404
[18]; first compound 2 µM
  relative viability: 0.331
[19]; first compound 0.02 µM
  relative viability: 0.943
[19]; first compound 0.2 µM
  relative viability: 0.452
[19]; first compound 0.6325 µM
  relative viability: 0.247
[19]; first compound 2 µM
  relative viability: 0.193
[20]; first compound 0.02 µM
  relative viability: 1.08
[20]; first compound 0.2 µM
  relative viability: 0.906
[20]; first compound 0.6325 µM
  relative viability: 1.1
[20]; first compound 2 µM
  relative viability: 0.809
[21]; first compound 0.02 µM
  relative viability: 1.13
[21]; first compound 0.2 µM
  relative viability: 1.24
[21]; first compound 0.6325 µM
  relative viability: 1.13
[21]; first compound 2 µM
  relative viability: 0.649
[22]; first compound 0.02 µM
  relative viability: 0.571
[22]; first compound 0.6325 µM
  relative viability: 0.677
[22]; first compound 2 µM
  relative viability: 0.386
